Source: patent US12016901B2, “Tissue catalyzed growth of polymer as epithelial linings for therapy” (priority 2019, dated 2024)

How the values were obtained:
catalase = molecular target: T1, catalase (Sus scrofa, UniProt O62839); experiment: In vitro inhibition of catalase activity in tissue lysates; assay type: biochemical, pig; conditions: small intestinal lysates, inhibitor 20 mM, 6 hours, 4° C.
T1 construct: from tissue; host or cells: porcine small intestinal epithelium, homogenized in RIPA buffer (tissue lysate)
T1 sequence (O62839 2-527 limits assumed): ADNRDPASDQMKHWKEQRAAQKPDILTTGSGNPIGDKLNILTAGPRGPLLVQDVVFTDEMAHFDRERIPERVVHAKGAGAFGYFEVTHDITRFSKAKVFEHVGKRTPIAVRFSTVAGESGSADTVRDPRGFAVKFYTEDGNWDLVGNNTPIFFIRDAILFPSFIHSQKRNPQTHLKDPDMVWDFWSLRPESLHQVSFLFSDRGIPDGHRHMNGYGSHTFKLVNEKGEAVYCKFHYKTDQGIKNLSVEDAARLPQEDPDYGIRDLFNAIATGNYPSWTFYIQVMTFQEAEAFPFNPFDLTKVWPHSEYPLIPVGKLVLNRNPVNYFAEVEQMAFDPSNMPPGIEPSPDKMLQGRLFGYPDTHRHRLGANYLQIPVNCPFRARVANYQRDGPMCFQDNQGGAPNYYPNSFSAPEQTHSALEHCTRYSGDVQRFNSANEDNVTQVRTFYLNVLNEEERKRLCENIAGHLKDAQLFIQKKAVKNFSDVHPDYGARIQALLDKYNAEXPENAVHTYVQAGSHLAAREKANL
Procedure: Tissue lysate preparation. Epithelial tissues of the porcine gastrointestinal tract were dissected on ice. The outer mucus layers were removed by aspiration, and then the rinsed tissues [(with 1× phosphate-buffered saline (PBS)] were frozen by liquid nitrogen. Tissues (10 mg) were incubated in the ice-cold lysis buffer (600 μl, RIPA buffer mixed with protease and phosphatase inhibitor cocktail, Sigma-Aldrich) and homogenized to form tissue lysates. The total protein concentrations of tissue lysates were measured by using the bicinchoninic acid (BCA) assay.
In vitro inhibition of catalase activity. 3-amino-1,2,4-triazole was used as the inhibitor. Tissue lysates (10 mg/ml, 100 μl) were incubated in the inhibitor solution (20 mM) for 6 hours at 4° C.

in vivo = conditions: pig
Procedure: In vivo evolution of pharmacokinetics of the praziquantel-tissue-accelerated polymerization. Pigs were sedated, intubated, and maintained with isoflurane as described above. The gastric fluid was removed from the stomach before administration. […] Praziquantel without the tissue-accelerated polymerization was used as the control. Blood samples were collected from a marginal ear vein at designated time points. Serum samples were separated from blood by centrifugation (1800 G×10 min at 4° C.) and were stored at −80° C. for further analysis. […] Serum praziquantel concentration assessment. Praziquantel concentrations in serum from in vivo experiments were analyzed using Ultra-Performance Liquid Chromatography-Tandem Mass Spectrometry (UPLC-MS/MS). Analysis was performed on a Waters ACQUITY UPLC-I-Class System aligned with a Waters Xevo TQ-S mass spectrometer (Waters Corporation, Milford Mass.). Liquid chromatographic separation was performed on an Acquity UPLC BEH C18 (50 mm×2.1 mm, 1.7-μm particle size) column at 50° C. The mobile phase consisted of aqueous 0.1% formic acid, 10 mM ammonium formate solution (Mobile Phase A) and acetonitrile: 10 mM ammonium formate, 0.1% formic acid solution (95:5 v/v) (Mobile Phase B). […] The composition of 0% Mobile Phase A and 100% Mobile Phase B was held constant until 3.50 minutes. The composition returned to 80% Mobile Phase A at 3.51 minutes and was held at this composition until completion of the run, ending at 5.00 minutes, where it remained for column equilibration. The total run time was 5.00 minutes. […] Sample introduction and ionization was by electrospray ionization (ESI) in the positive ionization mode. Waters MassLynx 4.1 software was used for data acquisition and analysis. Stock solutions of praziquantel were prepared in methanol at a concentration of 500 μg/ml. […] Samples were vortexed, sonicated for 10 minutes, and centrifuged for 10 minutes at 13,000 rpm. 200 μl of supernatant was pipetted into a 96-well plate containing 200 μl of water. Finally, 1.00 μl was injected onto the UPLC-ESI-MS system for analysis.

With Nc1nc[nH]n1 [catalase-specific inhibitor, 3-amino-1,2,4-triazole] the “decrease of catalytic capacity of lysates” value (catalase) was “around 80%”.
With O=C(C1CCCCC1)N1CC(=O)N2CCc3ccccc3C2C1 (stereo not drawn) [praziquantel control, Praziquantel] the AUC (in vivo; Yorkshire) was 222 ng·h/mL, the concentration at 6 h (in vivo; Yorkshire) was 15.1 ng/mL and the elimination phase (in vivo; Yorkshire) was 2 to 6 h. The half-life (in vivo; Yorkshire) was 1.3 h and the “serum praziquantel concentration at 24 hours” value (in vivo) was “no drug was detected”.
